This note sets out measurements from ChEMBL document CHEMBL1201862, “PubChem BioAssay data set” (2004).

Holding throughout (assay): inhibition of tumour cell growth, NCI panel, 48 h
Experiment [1] relates to A498.
Experiment [2] concerns COLO 205.
Experiment [3] deals with EKVX.
Experiment [4] deals with HCT-116.
Experiment [5] relates to HOP-92.
Experiment [6] deals with HT-29.
The subject of experiment [7] is IGROV-1.
Experiment [8] concerns K562.
Experiment [9] deals with LOX IMVI.
Experiment [10] has as its system MDA-MB-231.
In experiment [11] the test system is NCI-H522.
The test system of experiment [12] is OVCAR-4.
The test system of experiment [13] is OVCAR-8.
The test system of experiment [14] is RXF 393.
Experiment [15] deals with SF-268.
In experiment [16] the test system is SNB-19.
Experiment [17] has as its system TK-10.
Experiment [18] has as its system UO-31.
The subject of experiment [19] is HCC 2998.

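The compound was tested at five concentrations on cells cultured in 96-well plates, with a 48-hour exposure period. Here, GI50 denotes the concentration required for 50% inhibition of growth.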 Calls of active or inactive are those of the source. Cut-off read from the data, not from the text of the source: active = GI50 up to about 1.1 µM and inactive = higher.

Consider `Cc1ccc(C)c(NC(=O)NCc2ccc(Cl)cc2)c1`, for which the GI50 in [1] is 20.8 µM (inactive); in experiment [2], > 100 µM (inactive); in experiment [3], 97.9 µM (inactive); in experiment [4], 35.3 µM (inactive); in [5], 18.3 µM (inactive); in [6] it was > 100 µM (inactive). Also, the GI50 in experiment [7] was 41.9 µM (inactive); in [8], 47.5 µM (inactive); in [9], > 100 µM (inactive); in experiment [10], 20 µM (inactive); in experiment [11], 24.9 µM (inactive); in experiment [12], 20.1 µM (inactive). The GI50 in experiment [13] is 34.9 µM (inactive); in [14], 8.89 µM (inactive); in experiment [15], 38.9 µM (inactive); in [16] it was > 23.3 µM (inactive); in experiment [17] it was 20.5 µM (inactive); in [18], 31 µM (inactive).

As to `COC(=O)Nc1nc2cc(NS(=O)(=O)c3cccs3)ccc2[nH]1`, the GI50 in [1] is 28 µM (inactive); in experiment [2], 20.7 µM (inactive); in experiment [3], 22.4 µM (inactive); in experiment [4], 18.4 µM (inactive); in experiment [5], 16.3 µM (inactive); in experiment [6], 23 µM (inactive). For the same compound, the GI50 in experiment [7] was 10.9 µM (inactive); in [8] it was 5.53 µM (inactive); in [9] it was 36.3 µM (inactive); in [10] it was 31 µM (inactive); in [11], 6.55 µM (inactive); in experiment [12], 38.9 µM (inactive). The GI50 was 36.4 µM (inactive) in [13]; 19.3 µM (inactive) in [14]; 38.3 µM (inactive) in [15]; 23.2 µM (inactive) in experiment [16]; 25.9 µM (inactive) in experiment [17]; 30.1 µM (inactive) in experiment [18].

As to `CCOC(=O)CSc1nnc2cc(CN3CCCC3)c(-c3ccc(Cl)cc3)nn12`, the GI50 was > 100 µM (inactive) in experiment [1]; > 100 µM (inactive) in [2]; > 100 µM (inactive) in experiment [3]; > 100 µM (inactive) in experiment [4]; > 100 µM (inactive) in experiment [5]; 74.5 µM (inactive) in [6]. Besides, the GI50 in experiment [7] was > 100 µM (inactive); in experiment [8], 83.8 µM (inactive); in [9], > 100 µM (inactive); in [10] it was > 100 µM (inactive); in experiment [11], 39.7 µM (inactive); in experiment [12] it was 33.6 µM (inactive). Moreover, the GI50 is > 100 µM (inactive) in experiment [13]; 86.5 µM (inactive) in experiment [14]; > 100 µM (inactive) in [15]; > 100 µM (inactive) in experiment [16]; > 100 µM (inactive) in [17]; > 100 µM (inactive) in [18].

Regarding `CCOC(=O)C1C(C)C2(C#N)C(=N)OC1(C)C2(C#N)C#N` (stereo unspecified), the GI50 in experiment [1] was > 100 µM (inactive); in experiment [2], > 100 µM (inactive); in experiment [3], > 100 µM (inactive); in experiment [19] it was > 10 µM (inactive); in [4], 76.7 µM (inactive); in experiment [5] it was 30.1 µM (inactive). Further, the GI50 in experiment [6] was 58.9 µM (inactive); in experiment [7] it was 39.2 µM (inactive); in experiment [8], 39.4 µM (inactive); in [9], 26.8 µM (inactive); in experiment [10], > 100 µM (inactive); in [11], 71.9 µM (inactive). The GI50 in experiment [13] is > 100 µM (inactive); in [14] it was 25.8 µM (inactive); in experiment [15] it was 57.9 µM (inactive); in [16] it was 79.3 µM (inactive); in experiment [17], 77.6 µM (inactive); in experiment [18] it was 76.9 µM (inactive).

As to `NCCCC(N)C(=O)O` (stereo unspecified), the GI50 in [1], in [2], in experiment [3], in [4], in [5] and in experiment [6] was > 100 µM (inactive) each time. The GI50 in experiment [7], in [8], in experiment [9], in experiment [10], in experiment [11] and in experiment [12] was > 100 µM (inactive) throughout. The GI50 in [13], in experiment [14], in experiment [15], in [16], in [17] and in experiment [18] was > 100 µM (inactive) throughout.

With `Cc1c(/C=N/NC(=S)N2CCCCC2)c(=O)n(-c2ccccc2)n1C`, the GI50 was 24.3 µM (inactive) in [1]; 29.9 µM (inactive) in [2]; 43.8 µM (inactive) in [3]; 75 µM (inactive) in experiment [19]; 57.8 µM (inactive) in [4]; > 100 µM (inactive) in experiment [5]. Besides, the GI50 in experiment [6] is 73.8 µM (inactive); in experiment [7], > 100 µM (inactive); in experiment [8], 36.6 µM (inactive); in [9], 70.5 µM (inactive); in [10] it was > 100 µM (inactive); in [11], 39.1 µM (inactive). The GI50 in experiment [13] is 42.8 µM (inactive); in [14], 26.5 µM (inactive); in experiment [15] it was 29.5 µM (inactive); in experiment [16], 71.4 µM (inactive); in experiment [17], 61.2 µM (inactive); in experiment [18] it was 42.4 µM (inactive).

Turning to `CN(C)N1C(=C(C#N)C#N)C(c2ccccc2)CC1C#N` (stereo unspecified), the GI50 in experiment [1], in [2], in [3], in experiment [19], in experiment [4] and in experiment [5] was > 100 µM (inactive) throughout. Besides, the GI50 in [6], in experiment [7], in experiment [8], in experiment [9], in experiment [10] and in [11] was > 100 µM (inactive) each time. Moreover, the GI50 in experiment [13], in experiment [14], in [15], in [16], in experiment [17] and in experiment [18] was > 100 µM (inactive) each time.

As to `C=C1C(=O)O[C@H]2/C=C(/C)C3=CC(=O)[C@@](C)(C[C@@H](OC(=O)/C(C)=C\C)C12)O3` (stereo partly specified), the GI50 was 5.2 µM (inactive) in experiment [1]; 0.284 µM (active) in experiment [2]; 1.59 µM (inactive) in [19]; 0.377 µM (active) in experiment [4]; 0.703 µM (active) in experiment [5]; 0.265 µM (active) in [6]. Moreover, the GI50 in experiment [7] was 0.971 µM (active); in experiment [8], 0.154 µM (active); in experiment [9], 0.272 µM (active); in [10], 3.05 µM (inactive); in experiment [11] it was 0.138 µM (active); in experiment [12] it was 3.95 µM (inactive). In addition, the GI50 in [13] is 0.863 µM (active); in experiment [14], 0.265 µM (active); in experiment [15], 1.88 µM (inactive); in experiment [18], 1.21 µM (inactive).

Take `CCOC(=O)C(NC(=O)C(CCCCNP(=O)(OCC)OCC)NC(=O)C(C)NC(C)=O)C(C)C` (stereo unspecified): the GI50 in [1] was 80.7 µM (inactive); in experiment [2], > 100 µM (inactive); in experiment [3], > 100 µM (inactive); in [19], > 100 µM (inactive); in experiment [4] it was > 100 µM (inactive); in [5], > 100 µM (inactive). In addition, the GI50 in experiment [6], in experiment [7], in experiment [8], in experiment [9], in experiment [10] and in experiment [12] was > 100 µM (inactive) in each case. For the same compound, the GI50 in experiment [13], in [14], in experiment [15], in [16], in experiment [17] and in [18] was > 100 µM (inactive) each time.

On to `O=C1NC(=O)/C(=C/c2ccc(S(=O)(=O)N/N=C/c3ccc(Cl)cc3)cc2)N1`, for which the GI50 in experiment [1] is 23.6 µM (inactive); in experiment [2], > 100 µM (inactive); in experiment [3] it was > 100 µM (inactive); in experiment [19], > 100 µM (inactive); in experiment [4], > 100 µM (inactive); in experiment [5] it was 78.5 µM (inactive). Further, the GI50 is > 100 µM (inactive) in [6]; 92.9 µM (inactive) in experiment [7]; > 100 µM (inactive) in experiment [8]; > 100 µM (inactive) in [9]; > 100 µM (inactive) in [10]; > 100 µM (inactive) in experiment [12]. Besides, the GI50 in experiment [13], in experiment [14], in [15], in [16], in experiment [17] and in experiment [18] was > 100 µM (inactive) each time.

As to `CC1OC1P(=O)(O)O` (stereo unspecified), the GI50 in experiment [1], in experiment [2], in [3], in experiment [19], in experiment [4] and in [5] was > 100 µM (inactive) in each case. The GI50 in experiment [6], in [7], in experiment [8], in [9], in [10] and in experiment [12] was > 100 µM (inactive) each time. For the same compound, the GI50 in experiment [13], in experiment [14], in experiment [15], in [16], in [17] and in [18] was > 100 µM (inactive) in each case.
